Experiments:
[1] = Stability of multibiotic agents in Simulated Gastric Fluid (SGF); format: in vitro ADME; conditions: simulated gastric fluid pH 1.6 with pepsin, 37° C., 1 μM
Experimental: Assay 3. Stability of multibiotic agents in Simulated Gastric Fluid (SGF). This assay can be used to assess the stability of a multibiotic agent in a stomach.
Medium was prepared by dissolving 2 g of sodium chloride in 0.6 L in ultrapure water (MilliQ®, Millipore Sigma, Darmstadt, Germany). The pH was adjusted to 1.6 with 1 N hydrochloric acid, and the volume was then adjusted to 1 L with purified water.
60 mg FaSSIF powder (Biorelevant™, London, UK) were dissolved in 500 mL buffer (above). Pepsin was added (0.1 mg/mL) (Millipore Sigma, Darmstadt, Germany), and the solution was stirred. The resulting SGF media were used fresh for each experiment.
Test compounds were dissolved in DMSO stock to 1 mM. An aliquot of the DMSO stock solution was removed and diluted in the SGF Media in 15 mL falcon tubes to generate a total compound concentration of 1 μM. A 1 mL aliquot was immediately removed and diluted once with 1 volume of acetonitrile for T0 timepoint. The mixture was sealed and mixed at 37° C. in an incubator. Aliquots (1 mL) were removed at regular intervals and immediately quenched by the addition of 1 volume of acetonitrile. The resulting samples were analyzed by LC/MS to determine degradation rates in SGF.

[2] = Stability of multibiotic agents in Simulated Intestinal Fluid (SIF); format: in vitro ADME; conditions: simulated intestinal fluid pH 6.7 with pancreatin, 37° C., 1 μM
Experimental: Assay 2. Stability of multibiotic agents in Simulated Intestinal Fluid (SIF). This assay can be used to assess the stability of a multibiotic agent in a small intestine. Phosphate buffer was prepared by dissolving 0.42 g of sodium hydroxide pellets and 3.95 g of monobasic sodium phosphate monohydrate and 6.19 g of sodium chloride in ultrapure water (MilliQ®, Millipore Sigma, Darmstadt, Germany). The pH was adjusted to 6.7 using aq. HCl and aq. NaOH, as necessary, and the solution was diluted with ultrapure water to produce 1 L of the pH 6.7 buffer. 112 mg FaSSIF powder (Biorelevant™, London, UK) was dissolved in 50 mL of the pH 6.7 buffer. 2 to 3 mL of the resulting solution were then added to 500 mg pancreatin (Millipore Sigma, Darmstadt, Germany). The resulting mixture was agitated by finger tapping the vessel containing the mixture until milky suspension formed. At this time, the remainder of the 50 mL FaSSiF/pH 6.7 buffer solution was added. The resulting suspension was flipped upside down 10 times to produce SIF, which was used fresh. Test compounds are dissolved in DMSO stock to 1 mM. An aliquot of the DMSO stock solution is removed and diluted in the SIF media in 15 mL falcon tubes to produce a mixture with a tested compound concentration of 1 μM. A 1 mL aliquot is immediately removed and diluted once with 1 volume of acetonitrile for T0 timepoint. The mixture is sealed and agitated at 37° C. in an incubator. Aliquots (1 mL) are removed at regular intervals and immediately quenched by the addition of 1 volume of acetonitrile. The resulting samples are analyzed by LC/MS to determine degradation rates.

SMILES	Assay 2 (SGF) (% Remaining @ 4 hours) [1]	Assay 3 (SIF) (% @ Remaining 4 hours) [2]
CC(O)CCOC(=O)c1cc(N)ccc1O (stereo in doubt) [Example 112, [(3R)-3-hydroxybutyl] 5-amino-2-hydroxy-benzoate]	C (>75% of the tested compound remaining)	C (>75% of the tested compound remaining)
CCCC(=O)OCC(OC(=O)CCC)[C@@H](OC(=O)CCC)[C@H](OC(=O)CCC)C(OC(=O)CCC)C(=O)O (stereo in doubt) [Example 113, (2S,3S,4R,5S)-2,3,4,5,6-penta(butanoyloxy)hexanoic acid]	C (>75% of the tested compound remaining)	B (25-75% of the tested compound remaining)
COc1cc(/C=C/C(=O)CC(=O)/C=C/c2ccc(OC(=O)Cc3c[nH]c4ccccc34)c(OC)c2)ccc1OC(=O)Cc1c[nH]c2ccccc12 [Example 1, [4-[(1E,6E)-7-[4-[2-(1H-indol-3-yl)acetyl]oxy-3-methoxy-phenyl]-3,5-dioxo-hepta-1,6-dienyl]-2-methoxy-phenyl] 2-(1H-indol-3-yl)acetate]	C (>75% of the tested compound remaining)	C (>75% of the tested compound remaining)
CCCC(=O)Oc1ccc(N)cc1C(=O)O [Example 2, 5-amino-2-butanoyloxy-benzoic acid]	C (>75% of the tested compound remaining)	C (>75% of the tested compound remaining)
CCCC(=O)Oc1ccc(/N=N/c2ccc(OC(=O)CCC)c(C(=O)O)c2)cc1C(=O)O [Example 3, 2-butanoyloxy-5-[(E)-(4-butanoyloxy-3-carboxy-phenyl)azo]benzoic acid]	A (<25% of the tested compound remaining)	A (<25% of the tested compound remaining)
CCCC(=O)Oc1ccc(/C=C/c2cc(OC(=O)CCC)cc(OC(=O)CCC)c2)cc1 [Example 7, [4-[(E)-2-[3,5-di(butanoyloxy)phenyl]vinyl]phenyl] butanoate]	C (>75% of the tested compound remaining)	B (25-75% of the tested compound remaining)
O=C(Cc1c[nH]c2ccccc12)Oc1ccc(/C=C/c2cc(OC(=O)Cc3c[nH]c4ccccc34)cc(OC(=O)Cc3c[nH]c4ccccc34)c2)cc1 [Example 8, [4-[(E)-2-[3,5-bis[[2-(1H-indol-3-yl)acetyl]oxy]phenyl]vinyl]phenyl] 2-(1H-indol-3-yl)acetate]	C (>75% of the tested compound remaining)	C (>75% of the tested compound remaining)
O=C(CCCc1ccccc1)Oc1ccc(/C=C/c2cc(OC(=O)CCCc3ccccc3)cc(OC(=O)CCCc3ccccc3)c2)cc1 [Example 9, [4-[(E)-2-[3,5-bis(4-phenylbutanoyloxy)phenyl]vinyl]phenyl] 4-phenylbutanoate]	–	C (>75% of the tested compound remaining)
CCCC(=O)Oc1ccc(/C=C/C(=O)CC(=O)/C=C/c2ccc(OC(=O)CCC)c(OC)c2)cc1OC [Example 14, [4-[(1E,6E)-7-(4-butanoyloxy-3-methoxy-phenyl)-3,5-dioxo-hepta-1,6-dienyl]-2-methoxy-phenyl] butanoate]	C (>75% of the tested compound remaining)	C (>75% of the tested compound remaining)
CC(=O)Oc1ccc2c(c1)oc(=O)c1cc(OC(C)=O)c(OC(C)=O)cc12 [Example 51, (8,9-diacetoxy-6-oxo-benzo[c]chromen-3-yl) acetate]	C (>75% of the tested compound remaining)	C (>75% of the tested compound remaining)
O=C(Cc1c[nH]c2ccccc12)Oc1ccc2c(c1)oc(=O)c1cc(OC(=O)Cc3c[nH]c4ccccc34)c(OC(=O)Cc3c[nH]c4ccccc34)cc12 [Example 55, [8,9-bis[[2-(1H-indol-3-yl)acetyl]oxy]-6-oxo-benzo[c]chromen-3-yl] 2-(1H-indol-3-yl)acetate]	C (>75% of the tested compound remaining)	B (25-75% of the tested compound remaining)
O=C(CCc1c[nH]c2ccccc12)Oc1ccc2c(c1)oc(=O)c1cc(OC(=O)CCc3c[nH]c4ccccc34)c(OC(=O)CCc3c[nH]c4ccccc34)cc12 [Example 56, [8,9-bis[3-(1H-indol-3-yl)propanoyloxy]-6-oxo-benzo[c]chromen-3-yl] 3-(1H-indol-3-yl)propanoate]	C (>75% of the tested compound remaining)	C (>75% of the tested compound remaining)
CCCCCCCC(=O)Oc1ccc2c(c1)oc(=O)c1cc(OC(=O)CCCCCCC)c(OC(=O)CCCCCCC)cc12 [Example 57, [8,9-di(octanoyloxy)-6-oxo-benzo[c]chromen-3-yl] octanoate]	C (>75% of the tested compound remaining)	–
CCCCCCCC(=O)Oc1ccc(/C=C/c2cc(OC(=O)CCCCCCC)cc(OC(=O)CCCCCCC)c2)cc1 [Example 69, [4-[(E)-2-[3,5-di(octanoyloxy)phenyl]vinyl]phenyl] octanoate]	C (>75% of the tested compound remaining)	–
CCCCCCCCCC(=O)Oc1ccc(/C=C/c2cc(OC(=O)CCCCCCCCC)cc(OC(=O)CCCCCCCCC)c2)cc1 [Example 70, [4-[(E)-2-[3,5-di(decanoyloxy)phenyl]vinyl]phenyl] decanoate]	C (>75% of the tested compound remaining)	–
CCCC(=O)O[C@H](C)CC(=O)Oc1ccc(/C=C/c2cc(OC(=O)C[C@@H](C)OC(=O)CCC)cc(OC(=O)C[C@@H](C)OC(=O)CCC)c2)cc1 [Example 72, [4-[(E)-2-[3,5-bis[[(3R)-3-butanoyloxybutanoyl]oxy]phenyl]vinyl]phenyl] (3R)-3-butanoyloxy-butanoate]	C (>75% of the tested compound remaining)	B (25-75% of the tested compound remaining)
CC(C)(COC(=O)CCc1c[nH]c2ccccc12)[C@@H](OC(=O)CCc1c[nH]c2ccccc12)C(=O)NCCCOC(=O)CCc1c[nH]c2ccccc12 [Example 93, 3-[[(2R)-2,4-bis[3-(1H-indol-3-yl)propanoyloxy]-3,3-dimethyl-butanoyl]amino]propyl 3-(1H-indol-3-yl)propanoate]	–	A (<25% of the tested compound remaining)
O=C(Cc1c[nH]c2ccccc12)O[C@H]1CO[C@H]2[C@@H]1OC[C@H]2OC(=O)Cc1c[nH]c2ccccc12 [Example 109, [(3S,3aR,6R,6aR)-6-[2-(1H-indol-3-yl)acetyl]oxy-2,3,3a,5,6,6a-hexahydrofuro[3,2-b]furan-3-yl] 2-(1H-indol-3-yl) acetate]	–	A (<25% of the tested compound remaining)
CCCC(=O)O[C@@H]1[C@@H](OC(=O)CCC)[C@H](Oc2ccccc2C(=O)O)OC[C@H]1OC(=O)CCC [Example 120, 2-[(2S,3R,4S,5R)-3,4,5-tri(butanoyloxy)tetrahydropyran-2-yl]oxybenzoic acid]	–	A (<25% of the tested compound remaining)
CCCC(=O)O[C@@H]1[C@@H](OC(=O)CCC)[C@@H](Oc2ccc(N)cc2C(=O)O)OC[C@@H]1OC(=O)CCC [Example 121, 5-amino-2-[(2R,3R,4S,5S)-3,4,5-tri(butanoyloxy)tetrahydropyran-2-yl]oxy-benzoic acid]	–	C (>75% of the tested compound remaining)
CCC(=O)O[C@H]1[C@H](OC(=O)CC)COC(OC(=O)CCc2c[nH]c3ccccc23)[C@@H]1OC(=O)CC (stereo partly drawn) [Example 168, [(3R,4S,5R)-3,4,5-tri(propanoyloxy)tetrahydropyran-2-yl] 3-(1H-indol-3-yl)propanoate]	C (>75% of the tested compound remaining)	–

Reference: patent US20230293458A1, “MULTIBIOTIC AGENTS AND METHODS OF USING THE SAME” (Flagship Pioneering Innovations V, Inc., priority 2017, published 2023)
